Measured values reported in US9663526B2, “Aminopyrimidinyl compounds” (Pfizer Inc., priority 2014, dated 2017).
Like-named read-outs stand apart in the source and are kept apart here.

Experiments:
[1] = target: recombinant human kinase domain of JAK1 (Homo sapiens (Human), UniProt P23458); assay: JAK Caliper enzyme assay at 1 mM ATP (JAK1); format: biochemical;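 also: microfluidic mobility-shift readout of synthetic fluorescent peptide phosphorylation, percent product converted from peak height, inhibition relative to DMSO-only wells as uninhibited baseline, room temperature incubation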
Sequence of recombinant human kinase domain of JAK1 (P23458 875-1153): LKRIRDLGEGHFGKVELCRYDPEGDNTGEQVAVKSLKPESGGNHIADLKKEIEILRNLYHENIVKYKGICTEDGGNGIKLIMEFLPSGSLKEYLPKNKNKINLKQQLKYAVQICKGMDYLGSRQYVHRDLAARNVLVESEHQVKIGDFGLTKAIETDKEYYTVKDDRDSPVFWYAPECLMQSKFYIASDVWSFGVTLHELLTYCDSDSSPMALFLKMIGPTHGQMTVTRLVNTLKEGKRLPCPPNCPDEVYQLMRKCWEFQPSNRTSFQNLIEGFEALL

[2] = target: recombinant human kinase domain of JAK3 (Homo sapiens (Human), UniProt P52333); assay: JAK Caliper enzyme assay at 1 mM ATP (JAK3); format: biochemical; details: 1 mM ATP; read-out: IC50 (nM) JAK3;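 also: microfluidic mobility-shift readout of synthetic peptide phosphorylation, percent product converted from peak heights, normalized to DMSO-only wells as uninhibited baseline, room temperature incubation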
Sequence of recombinant human kinase domain of JAK3 (P52333 822-1111): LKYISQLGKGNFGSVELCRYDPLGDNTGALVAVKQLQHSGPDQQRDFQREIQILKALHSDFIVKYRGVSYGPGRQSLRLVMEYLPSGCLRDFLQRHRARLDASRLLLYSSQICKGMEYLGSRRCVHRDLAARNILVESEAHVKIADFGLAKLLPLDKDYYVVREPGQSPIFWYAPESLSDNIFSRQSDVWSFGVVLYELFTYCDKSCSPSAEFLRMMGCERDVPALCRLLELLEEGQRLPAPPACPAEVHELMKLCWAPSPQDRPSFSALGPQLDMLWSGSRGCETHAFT

[3] = target: recombinant human kinase domain of JAK2 (Homo sapiens (Human), UniProt O60674); assay: JAK Caliper enzyme assay at 1 mM ATP (JAK2); format: biochemical;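 also: microfluidic mobility-shift read-out of fluorescent synthetic peptide phosphorylation, percent product converted from peak heights, room temperature, DMSO-only wells as uninhibited baseline, inhibition curve fit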
Sequence of recombinant human kinase domain of JAK2 (O60674 849-1124): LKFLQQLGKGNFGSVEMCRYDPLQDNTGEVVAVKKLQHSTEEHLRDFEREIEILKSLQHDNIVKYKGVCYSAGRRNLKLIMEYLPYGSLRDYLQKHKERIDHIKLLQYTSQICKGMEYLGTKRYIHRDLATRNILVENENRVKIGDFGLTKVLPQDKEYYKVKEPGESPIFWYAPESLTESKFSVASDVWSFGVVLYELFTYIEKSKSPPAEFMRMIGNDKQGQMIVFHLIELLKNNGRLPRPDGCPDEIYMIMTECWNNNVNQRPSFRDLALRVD

[4] = target: recombinant human kinase domain of TYK2 (Homo sapiens (Human), UniProt P29597); assay: JAK Caliper enzyme assay at 1 mM ATP (TYK2); format: biochemical; details: 1 mM ATP; read-out: IC50 (nM) TYK2;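 also: microfluidic mobility-shift readout of synthetic peptide phosphorylation by TYK2, tuned to 20–30% conversion at room temperature, reaction stopped with EDTA, DMSO-only wells as uninhibited baseline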
Sequence of recombinant human kinase domain of TYK2 (P29597 897-1176): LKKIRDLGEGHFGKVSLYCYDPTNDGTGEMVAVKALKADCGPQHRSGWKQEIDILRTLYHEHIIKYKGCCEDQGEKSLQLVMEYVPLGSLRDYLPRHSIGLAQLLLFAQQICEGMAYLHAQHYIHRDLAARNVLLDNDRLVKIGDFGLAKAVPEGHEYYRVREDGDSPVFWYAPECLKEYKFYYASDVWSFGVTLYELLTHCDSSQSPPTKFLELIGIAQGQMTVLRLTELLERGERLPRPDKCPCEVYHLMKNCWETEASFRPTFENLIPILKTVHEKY

[5] = system: interferon alpha signalling (TYK2 and JAK1), STAT3 phosphorylation; assay: Human whole blood INFα induced STAT3 phosphorylation assay; format: cell-based; details: compound 60 minutes at 37° C., IFNα 5000 U/ml for 15 minutes, pSTAT3 in lymphocyte population by flow cytometry, read-out: HWB IFN alpha IC50;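 also: flow cytometry with anti-pSTAT3 staining, signal as percent-positive × mean fluorescence, baseline from unstimulated wells, 11-point dilution series, IC50 as inhibition of pSTAT3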
[6] = 1 mM ATP, read-out: IC50 (nM) JAK1

Row | Structure (SMILES) | IC50 [1, 6] [nM] | IC50 [2] [nM] | IC50 [3] [nM] | IC50 [4] [nM] | IC50 [5] [nM] | IC50 [1] [nM]
1 | O=C([C@@H]1CC1(F)F)N1[C@@H]2CC[C@H]1CN(c1ccnc(Nc3cnc(N4CC[C@H](O)C4)c(F)c3)n1)C2 [Example 20, [(1S)-2,2-difluorocyclopropyl]{(1R,5S)-3-[2-({5-fluoro-6-[(3S)-3-hydroxypyrrolidin-1-yl]pyridin-3-yl}amino)pyrimidin-4-yl]-3,8-diazabicyclo[3.2.1]oct-8-yl}methanone] | 314 | > 10000 | 346 | 58 | 458 | 
2 | O=C([C@@H]1CC1(F)F)N1[C@@H]2CC[C@H]1CN(c1ccnc(Nc3cnc(N4CC(O)C4)c(F)c3)n1)C2 [Example 22, [(1S)-2,2-difluorocyclopropyl][(1R,5S)-3-(2-{[5-fluoro-6-(3-hydroxyazetidin-1-yl)pyridin-3-yl]amino}pyrimidin-4-yl)-3,8-diazabicyclo[3.2.1]oct-8-yl]methanone] | 490 | > 10000 | 312 | 55 | 410 | 
3 | O=C([C@@H]1CC1(F)F)N1[C@@H]2CC[C@H]1CN(c1ccnc(Nc3cnc(CO)c(F)c3)n1)C2 [Example 25, [(1S)-2,2-difluorocyclopropyl][(1R,5S)-3-(2-{[5-fluoro-6-(hydroxymethyl)pyridin-3-yl]amino}pyrimidin-4-yl)-3,8-diazabicyclo[3.2.1]oct-8-yl]methanone] | 317 | > 10000 | 468 | 34 | 229 | 
4 | CC(C)(C#N)c1ccc(Nc2nccc(N3C[C@H]4CC[C@@H](C3)N4C(=O)[C@@H]3CC3(F)F)n2)cn1 [Example 26, 2-[5-({4-[(1R,5S)-8-{[(1S)-2,2-difluorocyclopropyl]carbonyl}-3,8-diazabicyclo[3.2.1]oct-3-yl]pyrimidin-2-yl}amino)pyridin-2-yl]-2-methylpropanenitrile] | 60 | > 10000 | 192 | 25 | 247 | 
5 | CNC(=O)c1ncc(Nc2nccc(N3C[C@H]4CC[C@@H](C3)N4C(=O)[C@@H]3C[C@H]3C#N)n2)cc1F [Example 27, 5-({4-[(1R,5S)-8-{[(1R,2R)-2-cyanocyclopropyl]carbonyl}-3,8-diazabicyclo[3.2.1]oct-3-yl]pyrimidin-2-yl}amino)-3-fluoro-N-methylpyridine-2-carboxamide] | 78 | > 10000 | 640 | 61 | 139 | 
6 | CNC(=O)c1ncc(Nc2nccc(N3C[C@H]4CC[C@@H](C3)N4C(=O)[C@@H]3CC3(F)F)n2)cc1F [Example 29, 5-({4-[(1R,5S)-8-{[(1S)-2,2-difluorocyclopropyl]carbonyl}-3,8-diazabicyclo[3.2.1]oct-3-yl]pyrimidin-2-yl}amino)-3-fluoro-N-methylpyridine-2-carboxamide] |  | > 10000 | 487 | 31 | 118 | 131
7 | CNC(=O)c1ncc(Nc2nccc(N3C[C@H]4CC[C@@H](C3)N4C(=O)C3CC3)n2)cc1Cl [Example 30, 3-chloro-5-({4-[(1R,5S)-8-(cyclopropylcarbonyl)-3,8-diazabicyclo[3.2.1]oct-3-yl]pyrimidin-2-yl}amino)-N-methylpyridine-2-carboxamide] | 1160 | > 10000 | 2130 | 97 | 653 | 
8 | CNC(=O)c1ncc(Nc2nccc(N3C[C@H]4CC[C@@H](C3)N4C(=O)[C@@H]3C[C@H]3C#N)n2)cc1Cl [Example 31, 3-chloro-5-({4-[(1R,5S)-8-{[(1R,2R)-2-cyanocyclopropyl]carbonyl}-3,8-diazabicyclo[3.2.1]oct-3-yl]pyrimidin-2-yl}amino)-N-methylpyridine-2-carboxamide] | 78 | > 10000 | 401 | 32 | 284 | 
9 | Cn1cc(Nc2nccc(N3C[C@H]4CC[C@@H](C3)N4C(=O)C3(F)CC3)n2)cn1 [Example 46, (1-fluorocyclopropyl)[(1R,5S)-3-{2-[(1-methyl-1H-pyrazol-4-yl)amino]pyrimidin-4-yl}-3,8-diazabicyclo[3.2.1]oct-8-yl]methanone] | 173 | 4160 | 526 | 84 | 209 | 
10 | O=C(C1CC1)N1[C@@H]2CC[C@H]1CN(c1ccnc(Nc3cn[nH]c3)n1)C2 [Example 49, cyclopropyl{(1R,5S)-3-[2-(1H-pyrazol-4-ylamino)pyrimidin-4-yl]-3,8-diazabicyclo[3.2.1]oct-8-yl}methanone] | 77 | > 10000 | 614 | 49 | 85 | 
11 | CNC(=O)c1ncc(Nc2nccc(N3C[C@H]4CC[C@@H](C3)N4Cc3ccno3)n2)cc1C [Example 53, N,3-dimethyl-5-({4-[(1R,5S)-8-(1,2-oxazol-5-ylmethyl)-3,8-diazabicyclo[3.2.1]oct-3-yl]pyrimidin-2-yl}amino)pyridine-2-carboxamide] | 226 | > 10000 | 375 | 24 | 287 | 
12 | Cn1cc(Nc2nccc(N3C[C@H]4CC[C@@H](C3)N4Cc3ccno3)n2)cn1 [Example 56, N-(1-methyl-1H-pyrazol-4-yl)-4-[(1R,5S)-8-(1,2-oxazol-5-ylmethyl)-3,8-diazabicyclo[3.2.1]oct-3-yl]pyrimidin-2-amine] | 110 | > 10000 | 394 | 41 | 78 | 
13 | Cn1cc(Nc2nccc(N3C[C@H]4CC[C@@H](C3)N4Cc3nccs3)n2)cn1 [Example 57, N-(1-methyl-1H-pyrazol-4-yl)-4-[(1R,5S)-8-(1,3-thiazol-2-ylmethyl)-3,8-diazabicyclo[3.2.1]oct-3-yl]pyrimidin-2-amine] | 294 | > 10000 | 1070 | 89 | 338 | 
14 | Cn1cc(Nc2nccc(N3C[C@H]4CC[C@@H](C3)N4C3CC(C#N)C3)n2)cn1 (stereo partly drawn) [Example 59, 3-[(1R,5S)-3-{2-[(1-methyl-1H-pyrazol-4-yl)amino]pyrimidin-4-yl}-3,8-diazabicyclo[3.2.1]oct-8-yl]cyclobutanecarbonitrile] | 78 | 8800 | 236 | 62 | 84 | 
15 | Cn1cc(Nc2nccc(N3C[C@H]4CC[C@@H](C3)N4C3CN(S(C)(=O)=O)C3)n2)cn1 [Example 60, N-(1-methyl-1H-pyrazol-4-yl)-4-{(1R,5S)-8-[1-(methylsulfonyl)azetidin-3-yl]-3,8-diazabicyclo[3.2.1]oct-3-yl}pyrimidin-2-amine] | 36 | > 10000 | 159 | 70 | 103 | 
16 | Cn1cc(Nc2nccc(N3C[C@H]4CC[C@@H](C3)N4C[C@@H]3CC3(F)F)n2)cn1 [Example 64, 4-[(1R,5S)-8-{[(1S)-2,2-difluorocyclopropyl]methyl}-3,8-diazabicyclo[3.2.1]oct-3-yl]-N-(1-methyl-1H-pyrazol-4-yl)pyrimidin-2-amine] | 95 | > 10000 | 320 | 41 | 71 | 
